Assay [1] deals with T1, androgen receptor (AR) (Homo sapiens, UniProt P10275).
T1 sequence (P10275 1-920): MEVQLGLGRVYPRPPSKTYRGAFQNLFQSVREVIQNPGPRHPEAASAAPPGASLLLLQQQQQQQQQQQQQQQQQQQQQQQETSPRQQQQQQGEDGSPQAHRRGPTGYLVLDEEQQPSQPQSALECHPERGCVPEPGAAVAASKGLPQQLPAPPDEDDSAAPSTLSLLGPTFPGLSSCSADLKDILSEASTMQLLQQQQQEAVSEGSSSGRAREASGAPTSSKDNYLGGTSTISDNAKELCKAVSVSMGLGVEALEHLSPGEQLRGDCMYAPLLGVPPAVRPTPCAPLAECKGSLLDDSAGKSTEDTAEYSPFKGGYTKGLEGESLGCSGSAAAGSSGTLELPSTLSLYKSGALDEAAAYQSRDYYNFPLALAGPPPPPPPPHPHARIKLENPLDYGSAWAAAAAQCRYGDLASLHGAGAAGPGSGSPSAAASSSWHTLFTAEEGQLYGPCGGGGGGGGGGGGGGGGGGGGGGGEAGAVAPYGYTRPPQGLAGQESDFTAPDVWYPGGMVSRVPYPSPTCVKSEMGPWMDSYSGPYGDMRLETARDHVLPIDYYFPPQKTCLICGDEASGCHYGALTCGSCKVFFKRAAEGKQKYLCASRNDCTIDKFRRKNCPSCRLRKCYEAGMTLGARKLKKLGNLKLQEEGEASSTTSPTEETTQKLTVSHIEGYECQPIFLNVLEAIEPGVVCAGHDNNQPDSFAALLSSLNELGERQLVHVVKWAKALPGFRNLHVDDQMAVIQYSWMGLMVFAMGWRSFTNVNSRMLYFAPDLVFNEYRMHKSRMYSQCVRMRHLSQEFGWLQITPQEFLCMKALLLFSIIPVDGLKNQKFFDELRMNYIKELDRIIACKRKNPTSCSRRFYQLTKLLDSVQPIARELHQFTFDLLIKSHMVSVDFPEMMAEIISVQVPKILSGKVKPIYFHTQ
Put plainly: Antagonism of compounds on nuclear translocation of androgen receptor (PathHunter NHR cell lines). The settings on record: antagonist mode, agonist 6a-Fluorotestosterone 0.06 μM (EC80). The format is cell-based. As to the method: Example 75 Test of Antagonism of Compounds on Nuclear Translocation of Androgen Receptor (AR)
1. PathHunter NHR cell lines were recovered and cultured for amplification.
2. The cells were inoculated onto a 384-well plate prior to testing, and incubated at 37° C. The serum for culture was filtered with charcoal-dextran to reduce the hormone level therein.
3. In the detection of the antagonistic function, a compound was added to the cells and incubated for 60 min. The working concentration of the test compound was diluted from 10 μM at a 3-fold concentration gradient, respectively including: […]. Then, an agonist 6a-Fluorotestosterone 0.06 μM (concentration: EC80, i.e., 80% agonistic compound concentration) was added, and the mixture was incubated at 37° C. or at room temperature for 3-16 h.
4. Signal detection: 12.5 μL or 15 μL (50%, v/v) PathHunter detection mixed solution (kit: DiscoverX product catalog number: 93-0001 series) was added, and incubated at room temperature for 1 h. The chemiluminescent signal was read with a PerkinElmer Envision™ instrument.
5. Data analysis: The compound activity was analyzed with CBIS data analysis software (ChemInnovation, CA). The calculation formula of the inhibition percent of the antagonist is as follows: IC50 inhibition ratio (%)=[…]×(1−(average RLU value of the test compound−average RLU value of the blank control group)/(average RLU value of EC80 control group−average RLU value of the blank control group)).

Assay [2] deals with Human prostate cancer LNCaP-FGC cells. Put plainly: In vivo pharmacodynamic study on subcutaneous xenograft tumor model of human prostate cancer LNCaP-FGC cells. Also on record: species or system CB-17 SCID mice. The settings on record: after 21 days of administration, vs solvent control. Here is the method: 2.1 Experimental Animals • Species: Mice • Strain: CB-17 SCID mice • Week age and body weight: 6-8 weeks old, 18-22 g body weight • Gender: male • Supplier: Beijing Vital River Laboratory Animal Technology Co., Ltd • Animal Certificate No.: 11400700184227 3. Experimental Method and Steps 3.1 Cell Culture
Human prostate cancer LNCaP-FGC cells (ATCC, Manassas, Virginia) were cultured in vitro monolayers under the culture conditions of RPM11640 medium supplemented with […] fetal bovine serum at 37° C. with 5% CO2. Routine digestion treatment with trypsin-EDTA was performed twice a week for passage. When the cell saturation was 80%-90%, the cells were collected, counted, and inoculated.
0.2 mL (10×10^6) of LNCaP-FGC cells (10×10^6+Matrigel, 1:1) was inoculated subcutaneously to the right back of each CB-17 SCID mouse. When the average tumor volume reached 100-150 mm^3, administration in groups was started.
The tumor diameters were measured with a vernier caliper twice a week. The calculation formula of the tumor volume is: V=0.5a×b^2, wherein a and b represent the long diameter and the short diameter of the tumor, respectively. The antitumor efficacy of the compounds were evaluated by TGI (%) or a relative tumor proliferation rate T/C (%). TGI(%)=[(1−(average tumor volume of a treatment group at the end of drug administration−average tumor volume of the treatment group at the beginning of drug administration))/(average tumor volume of the vehicle control group at the end of treatment−average tumor volume of the vehicle control group at the beginning of treatment)]×100%. The calculation formula of the relative tumor proliferation rate T/C (%) is as follows: T/C %=TRTV/CRTV×100% (TRTV: RTV of a treatment group; CRTV: RTV of a negative control group). The relative tumor volume (RTV) is calculated based on the tumor measurement results, and the calculation formula is RTV=Vt/V0, wherein V0 is the average tumor volume measured at the time of administration in groups (i.e., do), Vt is the average tumor volume at one measurement, and TRTV and CRTV are the data obtained on the same day.
The statistical analysis includes mean and standard error of mean (SEM) of the tumor volume at each time point for each group. […] The comparison between two groups was analyzed by T-test, and the comparison between three or more groups was analyzed by one-way ANOVA. If there was a significant difference in the F value, the Games-Howell method was used for testing. If there was no significant difference in the F value, the Dunnet (2-sided) method was used for analysis. All data analysis was performed by using SPSS 17.0. “p<0.05” was considered a significant difference.
For orientation: Xenograft models place foreign cells or tissue in a host animal.

pIC50: −log10 of the molar value.

In assay [1], `CCc1nc(OCCO)c2cc(N3C(=S)N(c4ccc(C#N)c(C(F)(F)F)c4)C(=O)C3(C)C)cc(F)c2n1` [Compound 10] showed a pIC50 of 5.77. In addition, in assay [2] (50 mg/kg PO QD), the TGI is recorded as 83.0% and the “relative tumor proliferation rate T/C” value is recorded as 23.8%.

As to `CCc1cc(=O)n2cc(N3C(=S)N(c4ccc(C#N)c(C(F)(F)F)c4)C(=O)C3(C)C)cc(F)c2n1` [Compound 35], in assay [1], the pIC50 was 5.64. In assay [2] (10 mg/kg PO QD), the TGI was determined as 59.36% and the “relative tumor proliferation rate T/C” value is 47.39%. Besides, in assay [2] (20 mg/kg PO QD), the TGI amounted to 76.00% and the “relative tumor proliferation rate T/C” value was 32.47%.

`CCc1cc(=O)n2cc(N3C(=S)N(c4ccc(C#N)c(Cl)c4)C(=O)C3(C)C)cc(F)c2n1` [Compound 58] gave a pIC50 in assay [1] of 6.02. Moreover, in assay [2] (10 mg/kg PO QD), the TGI was found to be 62.75% and the “relative tumor proliferation rate T/C” value is listed as 43.93%. In addition, in assay [2] (20 mg/kg PO QD), the TGI worked out at 76.16% and the “relative tumor proliferation rate T/C” value is 32.37%.

In general, pIC50 refers to −log10 of the IC50, conventionally taken in molar units. A higher pIC50 goes with a small IC50. As usually defined, the TGI is how far tumour growth fell short of that in controls. A high value points to much slowing of growth.

The record behind these values is patent US11866433B2, “Diarylthiohydantoin compound as androgen receptor antagonist” (CHIA TAI TIANQING PHARMACEUTICAL GROUP CO., LTD., priority 2017, dated 2024).
